{"source": "patent US20240342320A1", "about": "“POLYPEPTIDE TARGETING INTEGRIN ALPHA 6 AND USE THEREOF” (GUANGZHOU GENBIONOVA MEDICAL TECHNOLOGY CO., LTD., priority 2021, published 2024)", "key": {"[1]": {"system": "Hep3B subcutaneous tumors without expression of integrin α6", "test": "Near infrared imaging of Hep3B subcutaneous tumors", "type": "in vivo, mice"}, "[2]": {"system": "HCCLM3 subcutaneous tumors with high integrin α6 expression", "test": "Near infrared imaging of HCCLM3 subcutaneous tumor bearing mice", "type": "in vivo", "details": "tail vein, 24 hours", "description": "(§1) In the near infrared imaging of small animals, a 2 μl of 1 mM fluorescent probe RWYD-PEG4-K(ICG)-K(NOTA) (structural formula shown in FIG. 1C) was injected into the tail vein of HCCLM3 subcutaneous tumor bearing mice. After 24 hours of internal circulation, the distribution in the subcutaneous tumor bearing mice was observed."}, "[3]": {"system": "Hep3B subcutaneous tumors without expression of integrin α6", "test": "Near infrared imaging, Hep3B subcutaneous tumors", "type": "in vivo, mice"}, "[4]": {"system": "HCCLM3 subcutaneous tumors with high integrin α6 expression", "test": "Near infrared imaging in HCCLM3 subcutaneous tumor bearing mice", "type": "in vivo", "details": "2 μl of 1 mM, tail vein, 24 hours", "description": "as §1"}, "integrin α6β4 [5]": {"biological_target": "T1, integrin α6β4 (Homo sapiens, UniProt P23229)", "T1 sequence (P23229 24-1050 limits assumed)": "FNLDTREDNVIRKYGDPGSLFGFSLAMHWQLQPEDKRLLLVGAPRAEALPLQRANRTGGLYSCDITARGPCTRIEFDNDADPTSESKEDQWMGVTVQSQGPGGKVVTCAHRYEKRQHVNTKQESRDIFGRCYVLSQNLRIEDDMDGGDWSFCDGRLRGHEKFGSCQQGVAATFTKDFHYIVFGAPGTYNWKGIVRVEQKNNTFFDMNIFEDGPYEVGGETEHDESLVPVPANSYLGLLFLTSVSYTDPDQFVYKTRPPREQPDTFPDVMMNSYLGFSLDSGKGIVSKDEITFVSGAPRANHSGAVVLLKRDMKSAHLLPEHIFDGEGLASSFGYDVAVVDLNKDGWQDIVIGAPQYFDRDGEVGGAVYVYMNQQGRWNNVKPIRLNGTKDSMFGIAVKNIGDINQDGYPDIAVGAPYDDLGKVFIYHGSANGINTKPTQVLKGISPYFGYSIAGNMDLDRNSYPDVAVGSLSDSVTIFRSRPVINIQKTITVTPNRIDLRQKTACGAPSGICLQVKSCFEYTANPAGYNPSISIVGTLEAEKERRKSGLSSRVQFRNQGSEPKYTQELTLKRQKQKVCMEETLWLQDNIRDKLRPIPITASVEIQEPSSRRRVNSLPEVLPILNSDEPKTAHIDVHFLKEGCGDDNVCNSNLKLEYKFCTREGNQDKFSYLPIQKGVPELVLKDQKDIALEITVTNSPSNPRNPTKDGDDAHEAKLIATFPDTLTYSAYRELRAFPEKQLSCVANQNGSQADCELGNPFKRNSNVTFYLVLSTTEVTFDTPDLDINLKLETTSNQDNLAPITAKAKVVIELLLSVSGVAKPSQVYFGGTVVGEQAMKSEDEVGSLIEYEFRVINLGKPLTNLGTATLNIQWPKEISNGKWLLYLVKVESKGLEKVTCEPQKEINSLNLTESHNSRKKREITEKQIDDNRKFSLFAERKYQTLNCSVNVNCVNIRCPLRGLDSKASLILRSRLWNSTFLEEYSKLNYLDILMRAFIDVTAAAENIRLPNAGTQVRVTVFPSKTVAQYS", "T1 sequence (P16144 28-710 partner limits assumed)": "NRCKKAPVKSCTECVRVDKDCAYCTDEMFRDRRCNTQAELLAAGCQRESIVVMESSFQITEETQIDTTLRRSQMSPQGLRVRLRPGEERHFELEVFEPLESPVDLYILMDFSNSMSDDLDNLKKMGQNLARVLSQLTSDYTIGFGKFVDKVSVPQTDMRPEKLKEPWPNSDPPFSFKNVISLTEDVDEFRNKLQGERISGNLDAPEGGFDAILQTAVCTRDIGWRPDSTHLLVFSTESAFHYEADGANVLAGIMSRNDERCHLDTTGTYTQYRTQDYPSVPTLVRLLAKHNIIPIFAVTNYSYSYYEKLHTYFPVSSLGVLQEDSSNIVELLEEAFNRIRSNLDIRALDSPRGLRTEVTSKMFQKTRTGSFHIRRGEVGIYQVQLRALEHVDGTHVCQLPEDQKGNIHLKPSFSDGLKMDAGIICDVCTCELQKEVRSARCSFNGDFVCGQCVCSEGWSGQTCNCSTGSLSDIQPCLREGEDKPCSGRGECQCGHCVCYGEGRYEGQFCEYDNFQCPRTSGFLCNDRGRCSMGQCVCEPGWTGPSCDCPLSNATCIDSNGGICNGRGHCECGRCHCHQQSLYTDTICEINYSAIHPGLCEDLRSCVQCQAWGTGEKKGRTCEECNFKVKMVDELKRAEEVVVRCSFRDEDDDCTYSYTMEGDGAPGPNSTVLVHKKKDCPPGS", "test": "Microscale thermophoresis (MST) affinity to integrin α6β4", "type": "binding", "description": "(§2) The affinity between these 18 polypeptides and integrin α6β4 was detected by microscale thermophoresis (MST) method as follows: • 1) Integrin α6β4 protein was dissolved to 800 nM, and polypeptide was dissolved to 100 μM. • 2) A RED-tris-NTA second-generation dye was diluted to 100 nM by using the MO series RED-tris-NTA protein labeling kit. • 3) 100 μl α6β4 protein was mixed with 50 μl dye and incubated at room temperature for 30 min, so that the α6β4 protein binds to the dye. • 4) 10 μl polypeptide was transferred into a PCR tube, and was diluted with PBST (containing 0.05% Tween 20) at a ratio of 1:1 to 16 gradients of concentrations. • 5) 3 μl protein/dye mixture was transferred into a PCR tube, 3 μl of 16 different concentrations of polypeptides was respectively added and mixed well. • 6) The mixture was absorbed by capillary and loaded on machine (instrument model Monolith NT.115) to assay, parameters were set as 80% LED/excitation power and medium MST power. • 7) MO. Affinity Analysis software was used to calculate the equilibrium dissociation constant KD between α6β4 protein and polypeptide by KD fitting mode."}, "integrin α6β4 [6]": {"biological_target": "T2, integrin α6β4 (Homo sapiens, UniProt P16144+P23229)", "T2 sequence (P23229 24-1050 limits assumed)": "T1 sequence (P23229 24-1050 limits assumed)", "T2 sequence (P16144 28-710 partner limits assumed)": "T1 sequence (P16144 28-710 partner limits assumed)", "test": "Microscale thermophoresis (MST) affinity to integrin α6β4", "type": "binding", "details": "MST", "description": "as §2"}, "integrin α6β1": {"biological_target": "integrin α6β1 (Homo sapiens, UniProt P05556+P23229)", "sequence (P05556 21-728 partner limits assumed, one chain of several)": "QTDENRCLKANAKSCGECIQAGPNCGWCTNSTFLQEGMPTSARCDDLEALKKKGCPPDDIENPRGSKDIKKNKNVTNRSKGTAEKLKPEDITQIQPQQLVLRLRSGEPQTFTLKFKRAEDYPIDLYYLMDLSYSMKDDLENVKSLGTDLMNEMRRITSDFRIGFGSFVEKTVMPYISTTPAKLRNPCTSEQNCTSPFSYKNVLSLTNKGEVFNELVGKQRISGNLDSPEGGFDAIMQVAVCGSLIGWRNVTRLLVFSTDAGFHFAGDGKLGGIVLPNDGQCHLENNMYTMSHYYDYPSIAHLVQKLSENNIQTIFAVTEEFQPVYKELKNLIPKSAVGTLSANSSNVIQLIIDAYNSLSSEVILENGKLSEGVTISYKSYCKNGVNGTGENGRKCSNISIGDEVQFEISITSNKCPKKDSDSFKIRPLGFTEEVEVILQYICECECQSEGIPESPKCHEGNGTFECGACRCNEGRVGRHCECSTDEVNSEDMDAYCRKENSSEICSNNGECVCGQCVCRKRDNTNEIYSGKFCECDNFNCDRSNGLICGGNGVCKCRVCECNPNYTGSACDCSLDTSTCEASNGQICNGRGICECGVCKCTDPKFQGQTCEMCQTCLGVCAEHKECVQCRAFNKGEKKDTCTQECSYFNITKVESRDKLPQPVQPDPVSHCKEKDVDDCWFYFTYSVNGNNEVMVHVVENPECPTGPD", "test": "MST affinity to integrin α6β1", "type": "binding"}, "integrin α6β4 [7]": {"biological_target": "T3, integrin α6β4 (Homo sapiens, UniProt P23229)", "T3 sequence (P23229 24-938 limits assumed)": "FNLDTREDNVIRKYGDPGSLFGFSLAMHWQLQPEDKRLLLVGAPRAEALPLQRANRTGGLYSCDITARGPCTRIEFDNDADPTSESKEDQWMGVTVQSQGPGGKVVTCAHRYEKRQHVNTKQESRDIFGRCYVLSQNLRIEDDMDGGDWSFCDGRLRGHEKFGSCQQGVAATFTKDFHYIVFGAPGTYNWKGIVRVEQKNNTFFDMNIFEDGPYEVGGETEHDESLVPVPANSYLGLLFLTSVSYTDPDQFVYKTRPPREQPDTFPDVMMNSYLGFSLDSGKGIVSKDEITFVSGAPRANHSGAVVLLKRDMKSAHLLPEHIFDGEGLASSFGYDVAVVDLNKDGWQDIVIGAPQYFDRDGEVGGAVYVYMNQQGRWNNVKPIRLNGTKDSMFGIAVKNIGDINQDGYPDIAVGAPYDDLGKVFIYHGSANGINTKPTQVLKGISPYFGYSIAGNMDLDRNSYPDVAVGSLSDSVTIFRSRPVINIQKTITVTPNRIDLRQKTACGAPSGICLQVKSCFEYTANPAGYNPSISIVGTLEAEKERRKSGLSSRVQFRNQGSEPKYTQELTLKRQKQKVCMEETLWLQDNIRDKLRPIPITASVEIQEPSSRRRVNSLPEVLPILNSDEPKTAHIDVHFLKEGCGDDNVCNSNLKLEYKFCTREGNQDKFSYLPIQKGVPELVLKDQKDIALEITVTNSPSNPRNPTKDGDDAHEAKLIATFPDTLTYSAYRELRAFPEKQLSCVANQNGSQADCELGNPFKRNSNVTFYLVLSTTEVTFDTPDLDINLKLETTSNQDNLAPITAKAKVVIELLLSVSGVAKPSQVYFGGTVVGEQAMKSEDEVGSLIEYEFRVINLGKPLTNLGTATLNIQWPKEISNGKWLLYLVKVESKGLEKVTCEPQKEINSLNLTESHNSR", "T3 sequence (P23229 942-1050 limits assumed)": "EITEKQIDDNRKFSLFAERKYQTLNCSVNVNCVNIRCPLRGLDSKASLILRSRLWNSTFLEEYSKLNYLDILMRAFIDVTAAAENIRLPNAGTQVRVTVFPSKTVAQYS", "T3 sequence (P16144 28-710 partner limits assumed)": "T1 sequence (P16144 28-710 partner limits assumed)", "test": "Affinity between polypeptide mutants and integrin α6β4 by microscale thermophoresis (MST)", "type": "binding", "description": "as §2"}}, "note": "Like-named read-outs stand apart in the source and are kept apart here. Residues, ends and D or L forms follow the SMILES beside them.", "data": [{"compound": "RWYD-PEG4-K(ICG)-K(NOTA) [listing 1 of 2 here]", "values": [{"measurement": "tumor uptake, near infrared imaging", "setting": "[1]", "value": "not high taken up"}, {"measurement": "tumor uptake, near infrared imaging", "setting": "[2]", "value": "high taken up"}]}, {"compound": "RWYD-PEG4-K(ICG)-K(NOTA) [listing 2 of 2 here]", "values": [{"measurement": "tumor uptake, near infrared imaging", "setting": "[3]", "value": "not high taken up by Hep3B subcutaneous tumors"}, {"measurement": "tumor uptake, near infrared imaging", "setting": "[4]", "value": "high taken up by HCCLM3 subcutaneous tumors"}]}, {"compound": "N=C(N)NCCC[C@H](N)C(=O)N[C@@H](Cc1c[nH]c2ccccc12)C(=O)N[C@@H](Cc1ccc(O)cc1)C(=O)N[C@@H](CC(=O)O)C(=O)O", "note": "[P15, RWYD] (H-RWYD-OH; N-terminus and C-terminus assumed)", "values": [{"measurement": "Affinity increase relative to CRWYDENAC", "setting": "integrin α6β4 [5]; integrin α6β4", "value": 327, "unit": "times"}, {"measurement": "Affinity relative to RWY", "setting": "integrin α6β4 [5]; relative to CRWYDENAC (RWY) = 1.00", "value": 326.875}, {"measurement": "Kd", "setting": "integrin α6β4 [6]; integrin α6β4, determination 1, read-out: KD (um) 1", "value": 0.02, "unit": "µM"}, {"measurement": "Kd", "setting": "integrin α6β4 [6]; integrin α6β4, determination 3, read-out: KD (um) 3", "value": 0.026, "unit": "µM"}, {"measurement": "Kd", "setting": "integrin α6β4 [6]; integrin α6β4, mean of 3, read-out: KD Mean value (μm)", "value": 0.02, "unit": "µM"}, {"measurement": "Kd", "setting": "integrin α6β4 [6]; integrin α6β4, read-out: KD", "value": "0.0218 ± 0.00386", "unit": "µM"}, {"measurement": "Kd", "setting": "integrin α6β1", "value": "0.0531 ± 0.0287", "unit": "µM"}]}, {"compound": "(RWYD-PEG4)2-K-K-NOTA (not fully specified)", "values": [{"measurement": "Kd", "setting": "integrin α6β4 [7]", "value": "0.0648 ± 0.0282", "unit": "µM"}, {"measurement": "affinity increase of RWYD-PEG4 dimer over RWYD-PEG4-K-NOTA", "setting": "integrin α6β4 [7]; NOTA conjugates", "value": "about 10 times"}]}]}
